Reference: patent US20240049711A1, “HERBICIDE COMPOSITION AND WEED CONTROLLING METHOD” (SUMITOMO CHEMICAL COMPANY, LIMITED, priority 2020, published 2024)
Where a name gives a salt, the structure may show the parent alone.

Tests used:
Type in all cases: in vivo
[1] = system: common barnyardgrass (Echinochloa crus-galli); experiment: Example 214: greenhouse pot test, spray above the pot 25 days after seeding; settings: rating 0 to 100; application rate compound X 10 g/ha, chlorimuron-ethyl 16 g/ha; 216 L/ha; 18 days after spraying
Procedure: A formulation was produced by dissolving a predetermined amount of chlorimuron-ethyl in DMF containing 2% Tween 20 (polyoxyethylene (20) sorbitan monolaurate) (called chlorimuron-ethyl formulation).
After filling a plastic pot with soil, common barnyardgrass (Echinochloa crus-galli) was seeded therein and grown in a greenhouse. […] Thereafter, the weeds were grown in the greenhouse for 18 days and the herbicidal effect was estimated.

[2] = system: Italian ryegrass (Lolium multiflorum); experiment: Example 208: greenhouse pot test, spray above the pot 21 days after seeding; settings: rating 0 to 100; application rate compound X 15 g/ha, clethodim 53 g/ha; 200 L/ha; evaluated 6 days after spraying
Procedure: The compound X (55 mg) produced in Reference Production Example 1, 76.5 mg of Emulsogen TS290 (polyoxyethylene tristyryl phenyl ether, manufactured by Clariant) and 76.5 mg of Phenylsulfonat CAL (mixture of 70% calcium dodecylbenzenesulfonate and 30% iso-butanol, manufactured by Clariant) were dissolved in Solvesso 200ND (aromatic hydrocarbon, manufactured by Exxon Mobile Corporation) to make 1 ml in total, thus producing an emulsifiable concentrate (hereinafter referred to as formulation X).
After filling a plastic pot with soil, Italian ryegrass (Loliism multiflorum) was seeded therein and grown in a greenhouse.

[3] = system: Italian ryegrass (Lolium multiflorum); experiment: Example 209: greenhouse pot test, spray above the pot 21 days after seeding; settings: rating 0 to 100; application rate compound X 15 g/ha, pendimethalin 560 g/ha; 200 L/ha; evaluated 6 or 8 days after spraying
Procedure: (§1) After filling a plastic pot with soil, Italian ryegrass (Lolium multiflorum) and giant foxtail (Setaria faberi) were seeded therein and grown in a greenhouse.

[4] = system: giant foxtail (Setaria faberi); experiment: as above; settings: rating 0 to 100; application rate compound X 15 g/ha, pendimethalin 560 g/ha; 200 L/ha; evaluated 6 or 8 days after spraying
Procedure: as §1

[5] = system: Italian ryegrass (Lolium multiflorum); experiment: Example 212: greenhouse pot test, spray above the pot 21 days after seeding; settings: rating 0 to 100; application rate compound X 15 g/ha, glyphosate potassium salt 630 g/ha; 200 L/ha; evaluated 6 days after spraying
Procedure: as §1

[6] = system: giant foxtail (Setaria faberi); experiment: as above; settings: rating 0 to 100; application rate compound X 15 g/ha, glyphosate potassium salt 630 g/ha; 200 L/ha; evaluated 6 days after spraying
Procedure: as §1

Italian ryegrass = experiment: Example 213: greenhouse pot test, spray above the pot 21 days after seeding; settings: rating 0 to 100; application rate compound X 15 g/ha, glufosinate ammonium salt 297 g/ha; 200 L/ha; evaluated 8 days after spraying
[7] = system: common barnyardgrass (Echinochloa crus-galli); experiment: Example 215: greenhouse pot test, spray above the pot 25 days after seeding; settings: rating 0 to 100; application rate compound X 10 g/ha, mesotrione 35 g/ha; 216 L/ha; 18 days after spraying
Procedure: A formulation was produced by dissolving a predetermined amount of mesotrione in DMF containing 2% Tween 20 (polyoxyethylene (20) sorbitan monolaurate) (called mesotrione formulation).
(§2) After filling a plastic pot with soil, common barnyardgrass (Echinochloa crus-galli) was seeded therein and grown in a greenhouse. […] Thereafter, the weeds were grown in the greenhouse for 18 days and the herbicidal effect was evaluated.

[8] = system: common barnyardgrass (Echinochloa crus-galli); experiment: Example 216: greenhouse pot test, spray above the pot 25 days after seeding; settings: rating 0 to 100; application rate compound X 10 g/ha, metribuzin 105 g/ha; 216 L/ha; 18 days after spraying
Procedure: A formulation was produced by dissolving a predetermined amount of metribuzin in DMF containing 2% Tween 20 (polyoxyethylene (20) sorbitan monolaurate) (called metribuzin formulation).
as §2

[9] = system: common barnyardgrass (Echinochloa crus-galli); experiment: Example 217: greenhouse pot test, spray above the pot 25 days after seeding; settings: rating 0 to 100; application rate (table) compound X 10 g/ha, flumioxazin 30 g/ha; 216 L/ha; 18 days after spraying
Procedure: A formulation was produced by dissolving a predetermined amount of flumioxazin in DMF containing 2% Tween 20 (polyoxyethylene (20) sorbitan monolaurate) (called flumioxazin formulation).
as §2

[10] = system: common barnyardgrass (Echinochloa crus-galli); experiment: Example 218: greenhouse pot test, spray above the pot 25 days after seeding; settings: rating 0 to 100; application rate (table) compound X 10 g/ha, pyroxasulfone 40 g/ha; 216 L/ha; 18 days after spraying
Procedure: A formulation was produced by dissolving a predetermined of pyroxasulfone in DMF containing 2% Tween 20 (polyoxyethylene (20) sorbitan monolaurate) (called pyroxasulfone formulation).
as §2

**Q.** With CCOC(=O)c1ccccc1S(=O)(=O)NC(=O)Nc1nc(Cl)cc(OC)n1 [Chlorimuron-ethyl, chlorimuron-ethyl] as the compound, how does the “Herbicidal effect on common barnyardgrass (observed value)” value [1] read?
**A.** 45

**Q.** CCSC(C)CC1CC(=O)C(/C(CC)=N/OC/C=C/Cl)=C(O)C1 (stereo not shown) [Clethodim, clethodim] was tested. Which “Herbicidal effect on Italian ryegrass (observed value)” value (“Herbicidal effect on Italian ryegrass” for short) [2] did it give?
**A.** 10

**Q.** CCOC(=O)COC(=O)C1(Oc2cc(-n3c(=O)cc(C(F)(F)F)n(C)c3=O)c(F)cc2Cl)CC1 [Compound X] was tested. Which “Herbicidal effect on Italian ryegrass” value [2] did it give?
**A.** 20

**Q.** And the “Herbicidal effect on Italian ryegrass” value [3]?
**A.** 20

**Q.** And the “Herbicidal effect on giant foxtail (observed value)” value (“Herbicidal effect on giant foxtail” below) [4]?
**A.** 70

**Q.** And the “Herbicidal effect on Italian ryegrass” value [5]?
**A.** 20

**Q.** What about the “Herbicidal effect on giant foxtail” value [6] of the same compound?
**A.** 70

**Q.** What about the “Herbicidal effect on Italian ryegrass” value (Italian ryegrass) of the same compound?
**A.** 20

**Q.** And the “Herbicidal effect on common barnyardgrass (observed value)” value [1]?
**A.** 45

**Q.** And the “Herbicidal effect on common barnyardgrass (observed value)” value [7]?
**A.** 45

**Q.** What about the “Herbicidal effect on common barnyardgrass (observed value)” value [8] of the same compound?
**A.** 45

**Q.** What about the “Herbicidal effect on common barnyardgrass (observed value)” value [9] of the same compound?
**A.** 45

**Q.** And the “Herbicidal effect on common barnyardgrass (observed value)” value [10]?
**A.** 45

**Q.** For C#CCN1C(=O)COc2cc(F)c(N3C(=O)C4=C(CCCC4)C3=O)cc21 [Flumioxazin, flumioxazin], which “Herbicidal effect on common barnyardgrass (observed value)” value [9] is on record?
**A.** 55

**Q.** With CP(=O)(O)CCC(N)C(=O)O (stereo not shown) [Glufosinate ammonium salt, glufosinate ammonium salt] as the compound, how does the “Herbicidal effect on Italian ryegrass” value (Italian ryegrass) read?
**A.** 80

**Q.** How did the “Herbicidal effect on Italian ryegrass” value [5] turn out when O=C(O)CNCP(=O)(O)O [Glyphosate potassium salt, glyphosate potassium salt] was run?
**A.** 50

**Q.** What about the “Herbicidal effect on giant foxtail” value [6] of the same compound?
**A.** 40

**Q.** Which “Herbicidal effect on common barnyardgrass (observed value)” value [7] does the source give for CS(=O)(=O)c1ccc(C(=O)C2C(=O)CCCC2=O)c([N+](=O)[O-])c1 [Mesotrione, mesotrione] here?
**A.** 40

**Q.** For CSc1nnc(C(C)(C)C)c(=O)n1N [Metribuzin, metribuzin], which “Herbicidal effect on common barnyardgrass (observed value)” value [8] is on record?
**A.** 8

**Q.** What does the source list for CCC(CC)Nc1c([N+](=O)[O-])cc(C)c(C)c1[N+](=O)[O-] [Pendimethalin, pendimethalin]?
**A.** Herbicidal effect on Italian ryegrass (observed value) [3]: 0; Herbicidal effect on giant foxtail (observed value) [4]: 0

**Q.** Which “Herbicidal effect on common barnyardgrass (observed value)” value [10] does the source give for Cn1nc(C(F)(F)F)c(CS(=O)(=O)C2=NOC(C)(C)C2)c1OC(F)F [Pyroxasulfone, pyroxasulfone] here?
**A.** 2
